Data: US11584713B2, “25-hydroxycholecalciferol monohydrate crystal, preparation method therefor and microemulsion using same” (SHANDONG HAINENG BIOENGINEERING CO., LTD., priority 2018, dated 2023)

How the values were obtained:
[1] = Stability test, left open at 25° C., content of 25-hydroxycholecalciferol by HPLC; assay type: physicochemical; conditions: for Content of 25-hydroxycholecalciferol: left open at 25° C.
Experimental: 6. Stability Test the 25-hydroxycholecalciferol monohydrate crystal prepared in the present embodiment was left open at 25° C., and a content of 25-hydroxycholecalciferol contained therein was tested after one month, three months and six months respectively, and meanwhile, 25-hydroxycholecalciferol was used as a control example, and the results were shown in Table 2. The content of 25-hydroxycholecalciferol was measured by the following method: taking a sample to prepare a solution of about 10 μg/mL, injecting 20 μL for a HPLC analysis, and calculating the content thereof according to an external standard method. Test conditions of the HPLC were as follows: chromatographic column: C18 column; internal diameter: 4.6 mm; length: 150 mm, particle size: 5 μm; detection wavelength: 265 nm; temperature of column: 30° C.; flow rate: 1.5 mL/min (which may be adjusted according to desired retention time and a degree of separation of 25-hydroxycholecalciferol and a 25-hydroxycholecalciferol precursor); injection volume: 20 uL; and recording time: 2 times the retention time of main peak.

[2] = cited from earlier work

SMILES | Loss of 25-hydroxycholecalciferol (in words) ([1]; after six months of being left open at 25° C.) | Content of 25-hydroxycholecalciferol ([1]; 0 day) [%] | Content of 25-hydroxycholecalciferol ([1]; one month) [%] | Content of 25-hydroxycholecalciferol ([1]; six months) [%] | Content of 25-hydroxycholecalciferol ([1]; three months) [%] | solubility in diethyl ether ([2]; diethyl ether) | solubility in dimethyl sulfoxide ([2]; dimethyl sulfoxide) | solubility in ethanol ([2]; ethanol) | solubility in methanol ([2]; methanol) | solubility in water ([2]; water)
C=C1CC[C@H](O)C/C1=C/C=C1\CCC[C@]2(C)[C@@H]([C@H](C)CCCC(C)(C)O)CC[C@@H]12 [25-hydroxycholecalciferol monohydrate] | almost no loss | 99.60 | 99.05 | 96.59 | 98.46 |  |  |  |  | 
C=C1CC[C@H](O)C/C1=C/C=C1\CCC[C@]2(C)[C@@H]([C@H](C)CCCC(C)(C)O)CC[C@@H]12 [25-hydroxycholecalciferol] |  | 99.23 | 65.03 | 29.61 | 47.65 | slightly soluble | easily soluble | easily soluble | easily soluble | almost insoluble
